One assay has as its system Staphylococcus sp. As to the kind of experiment: In vitro antibacterial activity of compound against Staphylococci bacteria. Type of assay: functional.
The subject of another assay is Enterococcus sp. In words: In vitro antibacterial activity of compound against Enterococci bacteria. Format: functional.

Each structure is given as a SMILES string. Values after ≈ are worked out from the molar mass of the structure shown.

As usually defined, the MIC is the lowest concentration that inhibits growth of the organism. A higher MIC goes with a less susceptible organism.

Consider `C=CCOc1c(Cl)c(C)c(C(=O)O[C@@H]2[C@@H](C)O[C@@H](O[C@H]3[C@H](O)C[C@]4(O[C@@H]5[C@@H](C)O[C@@H](O[C@H]6[C@@H](OC)[C@@H](C)O[C@@H](O[C@H]7[C@H](O)[C@H](OC)[C@H](O[C@@H]8OC[C@@H]9O[C@@]%10(OC[C@@H](OC(=O)c%11c(C)cc(O)cc%11O)[C@@H]%11OCO[C@H]%11%10)O[C@H]9[C@H]8O)O[C@@H]7COC)[C@]6(C)O)[C@@H](O)[C@@]5(C)O4)O[C@@H]3C)C[C@H]2O[C@H]2C[C@](C)([N+](=O)[O-])[C@@H](OC)[C@H](C)O2)c(OC)c1Cl`, for which the MIC against Staphylococcus sp. and against Enterococcus sp. was 4 µg/mL (≈ 2.37 µM) in each case.
Consider `COC[C@H]1O[C@@H](O[C@@H]2OC[C@@H]3O[C@@]4(OC[C@@H](OC(=O)c5c(C)cc(O)cc5O)[C@@H]5OCO[C@H]54)O[C@H]3[C@H]2O)[C@@H](OC)[C@@H](O)[C@@H]1O[C@@H]1O[C@H](C)[C@H](OC)[C@H](O[C@@H]2O[C@H](C)[C@H]3O[C@]4(C[C@@H](O)[C@H](O[C@H]5C[C@@H](O[C@H]6C[C@](C)(NC(C)=O)[C@@H](OC)[C@H](C)O6)[C@H](OC(=O)c6c(C)c(Cl)c(O)c(Cl)c6OC)[C@@H](C)O5)[C@@H](C)O4)O[C@]3(C)[C@@H]2O)[C@@]1(C)O`, for which the figures for the MIC in the assay on Staphylococcus sp. and in the assay on Enterococcus sp. were 1 µg/mL (≈ 0.603 µM) and 2 µg/mL (≈ 1.21 µM), respectively.
Regarding `COC[C@H]1O[C@@H](O[C@@H]2OC[C@@H]3O[C@@]4(OC[C@@H](OC(=O)c5c(C)cc(O)cc5O)[C@@H]5OCO[C@H]54)O[C@H]3[C@H]2OCCN=[N+]=[N-])[C@@H](OC)[C@@H](O)[C@@H]1O[C@@H]1O[C@H](C)[C@H](OC)[C@H](O[C@@H]2O[C@H](C)[C@H]3O[C@]4(C[C@@H](O)[C@H](O[C@H]5C[C@@H](O[C@H]6C[C@](C)([N+](=O)[O-])[C@@H](OC)[C@H](C)O6)[C@H](OC(=O)c6c(C)c(Cl)c(O)c(Cl)c6OC)[C@@H](C)O5)[C@@H](C)O4)O[C@]3(C)[C@@H]2O)[C@@]1(C)O`, the MIC in the assay with Staphylococcus sp. and with Enterococcus sp. was 2 µg/mL (≈ 1.17 µM) throughout.
Consider `C=CCOc1cc(C)c(C(=O)O[C@@H]2CO[C@]3(O[C@H]4[C@@H](OCCO)[C@H](O[C@@H]5O[C@H](COC)[C@@H](O[C@@H]6O[C@H](C)[C@H](OC)[C@H](O[C@@H]7O[C@H](C)[C@H]8O[C@]9(C[C@@H](O)[C@H](O[C@H]%10C[C@@H](O[C@H]%11C[C@](C)([N+](=O)[O-])[C@@H](OC)[C@H](C)O%11)[C@H](OC(=O)c%11c(C)c(Cl)c(OCC=C)c(Cl)c%11OC)[C@@H](C)O%10)[C@@H](C)O9)O[C@]8(C)[C@@H]7O)[C@@]6(C)O)[C@H](O)[C@@H]5OC)OC[C@@H]4O3)[C@@H]3OCO[C@H]32)c(OCC=C)c1`, for which the MIC turned out to be 16 µg/mL (≈ 8.84 µM) in the assay with Staphylococcus sp. and 8 µg/mL (≈ 4.42 µM) against Enterococcus sp..
In the same order, the values of `COC[C@H]1O[C@@H](O[C@@H]2OC[C@@H]3O[C@@]4(OC[C@@H](OC(=O)c5c(C)cc(O)cc5O)[C@@H]5OCO[C@H]54)O[C@H]3[C@H]2O)[C@@H](OC)[C@@H](O)[C@@H]1O[C@@H]1O[C@H](C)[C@H](OC)[C@H](O[C@@H]2O[C@H](C)[C@H]3O[C@]4(C[C@@H](O)[C@H](O[C@H]5C[C@@H](O[C@H]6C[C@](C)(NC(=O)[C@H](CCSC)NC(=O)OCc7ccccc7)[C@@H](OC)[C@H](C)O6)[C@H](OC(=O)c6c(C)c(Cl)c(O)c(Cl)c6OC)[C@@H](C)O5)[C@@H](C)O4)O[C@]3(C)[C@@H]2O)[C@@]1(C)O` are 2 µg/mL (≈ 1.06 µM) and 2 µg/mL (≈ 1.06 µM).
The corresponding values for `COC[C@H]1O[C@@H](O[C@@H]2OC[C@@H]3O[C@@]4(OC[C@@H](OC(=O)c5c(C)cc(O)cc5O)[C@@H]5OCO[C@H]54)O[C@H]3[C@H]2O)[C@@H](OC)[C@@H](O)[C@@H]1O[C@@H]1O[C@H](C)[C@H](OC)[C@H](O[C@@H]2O[C@H](C)[C@H]3O[C@]4(C[C@@H](O)[C@H](O[C@H]5C[C@@H](O[C@H]6C[C@](C)(N)[C@@H](OC)[C@H](C)O6)[C@H](OC(=O)c6c(C)c(Cl)c(O)c(Cl)c6OC)[C@@H](C)O5)[C@@H](C)O4)O[C@]3(C)[C@@H]2O)[C@@]1(C)O` are 2 µg/mL (≈ 1.24 µM) and 4 µg/mL (≈ 2.48 µM).
In the same order, the values of `COC[C@H]1O[C@@H](O[C@@H]2OC[C@@H]3O[C@@]4(OC[C@@H](OC(=O)c5c(C)cc(O)cc5O)[C@@H]5OCO[C@H]54)O[C@H]3[C@H]2OCC(=O)OC)[C@@H](OC)[C@@H](OCC(=O)OC)[C@@H]1O[C@@H]1O[C@H](C)[C@H](OC)[C@H](O[C@@H]2O[C@H](C)[C@H]3O[C@]4(C[C@@H](O)[C@H](O[C@H]5C[C@@H](O[C@H]6C[C@](C)([N+](=O)[O-])[C@@H](OC)[C@H](C)O6)[C@H](OC(=O)c6c(C)c(Cl)c(O)c(Cl)c6OC)[C@@H](C)O5)[C@@H](C)O4)O[C@]3(C)[C@@H]2OCC(=O)OC)[C@@]1(C)O` are 32 µg/mL (≈ 17.2 µM) and 4 µg/mL (≈ 2.15 µM).
Turning to `COC[C@H]1O[C@@H](O[C@@H]2OC[C@@H]3O[C@@]4(OC[C@@H](OC(=O)c5c(C)cc(O)cc5O)[C@@H]5OCO[C@H]54)O[C@H]3[C@H]2OCCO)[C@@H](OC)[C@@H](O)[C@@H]1O[C@@H]1O[C@H](C)[C@H](OC)[C@H](O[C@@H]2O[C@H](C)[C@H]3O[C@]4(C[C@@H](O)[C@H](O[C@H]5C[C@@H](O[C@H]6C[C@](C)([N+](=O)[O-])[C@@H](OC)[C@H](C)O6)[C@H](OC(=O)c6c(C)c(Cl)c(O)c(Cl)c6OC)[C@@H](C)O5)[C@@H](C)O4)O[C@]3(C)[C@@H]2O)[C@@]1(C)O`, the MIC against Staphylococcus sp. came out at 1 µg/mL (≈ 0.592 µM); with Enterococcus sp. it was 0.5 µg/mL (≈ 0.296 µM).
Turning to `COC[C@H]1O[C@@H](O[C@@H]2OC[C@@H]3O[C@@]4(OC[C@@H](OC(=O)c5c(C)cc(O)cc5O)[C@@H]5OCO[C@H]54)O[C@H]3[C@H]2OCCNC(C)=O)[C@@H](OC)[C@@H](O)[C@@H]1O[C@@H]1O[C@H](C)[C@H](OC)[C@H](O[C@@H]2O[C@H](C)[C@H]3O[C@]4(C[C@@H](O)[C@H](O[C@H]5C[C@@H](O[C@H]6C[C@](C)([N+](=O)[O-])[C@@H](OC)[C@H](C)O6)[C@H](OC(=O)c6c(C)c(Cl)c(O)c(Cl)c6OC)[C@@H](C)O5)[C@@H](C)O4)O[C@]3(C)[C@@H]2O)[C@@]1(C)O`, the MIC against Staphylococcus sp. was 2 µg/mL (≈ 1.16 µM); in the assay on Enterococcus sp. it was 4 µg/mL (≈ 2.31 µM).
For the compound `COC[C@H]1O[C@@H](O[C@@H]2OC[C@@H]3O[C@@]4(OC[C@@H](OC(=O)c5c(C)cc(O)cc5O)[C@@H]5OCO[C@H]54)O[C@H]3[C@H]2O)[C@@H](OC)[C@@H](O)[C@@H]1O[C@@H]1O[C@H](C)[C@H](OC)[C@H](O[C@@H]2O[C@H](C)[C@H]3O[C@]4(C[C@@H](O)[C@H](O[C@H]5C[C@@H](O[C@H]6C[C@](C)(NC(=O)[C@@H](CCCCNC(=O)OCc7ccccc7)NC(=O)OCc7ccccc7)[C@@H](OC)[C@H](C)O6)[C@H](OC(=O)c6c(C)c(Cl)c(O)c(Cl)c6OC)[C@@H](C)O5)[C@@H](C)O4)O[C@]3(C)[C@@H]2O)[C@@]1(C)O`, the results for the MIC against Staphylococcus sp. and against Enterococcus sp. were 32 µg/mL (≈ 15.9 µM) and 8 µg/mL (≈ 3.98 µM), respectively.
As to `COC[C@H]1O[C@@H](O[C@@H]2OC[C@@H]3O[C@@]4(OC[C@@H](OC(=O)c5c(C)cc(O)cc5O)[C@@H]5OCO[C@H]54)O[C@H]3[C@H]2OC)[C@@H](OC)[C@@H](OC)C1O[C@@H]1O[C@H](C)[C@H](OC)C(O[C@@H]2O[C@H](C)[C@H]3O[C@]4(C[C@@H](OC)[C@H](O[C@H]5C[C@@H](O[C@H]6C[C@](C)([N+](=O)[O-])[C@@H](OC)[C@H](C)O6)[C@H](OC(=O)c6c(C)c(Cl)c(O)c(Cl)c6OC)[C@@H](C)O5)[C@@H](C)O4)O[C@]3(C)[C@@H]2OC)[C@@]1(C)OC` (stereo partly specified), the MIC against Staphylococcus sp. was found to be 16 µg/mL (≈ 9.33 µM); against Enterococcus sp. it was 4 µg/mL (≈ 2.33 µM).
The corresponding values for `COC[C@H]1O[C@@H](O[C@@H]2OC[C@@H]3O[C@@]4(OC[C@@H](OC(=O)c5c(C)cc(O)cc5O)[C@@H]5OCO[C@H]54)O[C@H]3[C@H]2O)[C@@H](OC)[C@@H](O)[C@@H]1O[C@@H]1O[C@H](C)[C@H](OC)[C@H](O[C@@H]2O[C@H](C)[C@H]3O[C@]4(C[C@@H](O)[C@H](O[C@H]5C[C@@H](O[C@H]6C[C@](C)(NC(=O)[C@H](C)N)[C@@H](OC)[C@H](C)O6)[C@H](OC(=O)c6c(C)c(Cl)c(O)c(Cl)c6OC)[C@@H](C)O5)[C@@H](C)O4)O[C@]3(C)[C@@H]2O)[C@@]1(C)O` are 4 µg/mL (≈ 2.37 µM) and 4 µg/mL (≈ 2.37 µM).
In the case of `COC[C@H]1O[C@@H](O[C@@H]2OC[C@@H]3O[C@@]4(OC[C@@H](OC(=O)c5c(C)cc(O)cc5O)[C@@H]5OCO[C@H]54)O[C@H]3[C@H]2O)[C@@H](OC)[C@@H](O)[C@@H]1O[C@@H]1O[C@H](C)[C@H](OC)[C@H](O[C@@H]2O[C@H](C)[C@H]3O[C@]4(C[C@@H](O)[C@H](O[C@H]5C[C@@H](O[C@H]6C[C@](C)([N+](=O)[O-])[C@@H](OC)[C@H](C)O6)[C@H](OC(=O)c6c(C)c(Cl)c(O)c(Cl)c6OC)[C@@H](C)O5)[C@@H](C)O4)O[C@]3(C)[C@@H]2O)[C@H]1O` [EVERNIMICIN], the values for the MIC against Staphylococcus sp. and in the assay with Enterococcus sp. were 2 µg/mL (≈ 1.23 µM) and 0.25 µg/mL (≈ 0.153 µM), respectively.

The values are drawn from ChEMBL document CHEMBL1132390, “Chemical modifications and structure activity studies of ziracin and related everninomicin antibiotics” (1999).
